Tests used:
A549 = assay: cells; settings: Homo sapiens, A549, 48 h
Description: Cytotoxicity against human A549 cells assessed as cell viability after 48 hrs by MTT assay

HepG2 = assay: Cytotoxicity against human HepG2 cells assessed as cell viability after 48 hrs by MTT assay; type: functional, cell-based; settings: HepG2, 48 h
RAW264.7 = assay: Antiinflammatory activity in mouse RAW264.7 cells assessed as inhibition of LPS-stimulated nitric oxide production after 24 hrs by Griess assay; type: functional, cell-based; settings: RAW264.7, 24 h
MCF7 = assay: Cytotoxicity against human MCF7 cells assessed as cell viability after 48 hrs by MTT assay; type: functional, cell-based; settings: MCF7, 48 h

Row | SMILES | IC50 (A549) [µM] | IC50 (RAW264.7) [µM] | IC50 (HepG2) [µM] | IC50 (MCF7) [µM]
1 | C=C(CO)[C@@H]1CC[C@]2(C)[C@H](CC[C@@H]3[C@@H]([C@]4(C)CC[C@@H](C(C)(C)O)O4)CC[C@]32C)[C@@]1(C)CCC(=O)OC | > 50 | > 100 | 28 | > 50
2 | C=C(C)[C@@H]1CC[C@]2(C)[C@H](CC[C@@H]3[C@@H]([C@]4(C)CCC(=O)O4)CC[C@]32C)[C@@]1(C)CCC(=O)OCC | > 50 | > 100 | 38.4 | > 50
3 | C=C(C)[C@@H]1CC[C@]2(C)[C@H](CC[C@@H]3[C@@H]([C@]4(C)CC[C@@H](C(C)(C)O)O4)CC[C@]32C)[C@@]1(C)CCC(=O)OC | > 50 | > 100 | > 50 | > 50
4 | C=C(C)[C@@H]1CC[C@]2(C)[C@H](CC[C@@H]3[C@@H]([C@]4(C)CCC(=O)O4)CC[C@]32C)[C@@]1(C)CCC(=O)O | > 50 | > 100 | > 50 | > 50
5 | CCOC(=O)CC[C@@]1(C)[C@H]([C@@](C)(O)CO)CC[C@]2(C)[C@@H]1CC[C@@H]1[C@@H]([C@]3(C)CC[C@@H](C(C)(C)O)O3)CC[C@]12C | > 50 | > 100 | > 50 | > 50
6 | CC1(C)C(=O)CC[C@]2(C)[C@H]3CC[C@@H]4[C@@H]([C@]5(C)CCC(=O)O5)CC[C@@]4(C)[C@]3(C)CC[C@@H]12 [CABRALELACTONE] | > 50 | > 100 | > 50 | > 50
7 | CC1(C)[C@H](O)CC[C@]2(C)[C@H]3CC[C@@H]4[C@@H]([C@]5(C)C=CC(=O)O5)CC[C@@]4(C)[C@]3(C)CC[C@@H]12 | > 50 | > 100 | > 50 | > 50
8 | CC1(C)[C@H](O)CC[C@]2(C)[C@H]3CC[C@@H]4[C@@H]([C@]5(C)CCC(=O)O5)CC[C@@]4(C)[C@]3(C)CC[C@@H]12 [CABRALEAHYDROXYLACTONE] | > 50 | > 100 | > 50 | > 50
9 | CCOC(=O)CC[C@@]1(C)[C@H]([C@@](C)(O)CO)CC[C@]2(C)[C@@H]1CC[C@@H]1[C@@H]([C@]3(C)CC[C@H](C(C)(C)O)O3)CC[C@]12C | > 50 | 57.7 | > 50 | > 50
10 | C=C(C)[C@@H]1CC[C@]2(C)[C@H](CC[C@@H]3[C@@H]([C@]4(C)CCC(=O)O4)CC[C@]32C)[C@@]1(C)CCC(=O)OC | > 50 | 31.8 | > 50 | > 50
11 | CC(C)(O)[C@@H]1CC[C@@](C)([C@H]2CC[C@]3(C)[C@@H]2CC[C@@H]2[C@@]4(C)CC[C@@H](O)C(C)(C)[C@@H]4CC[C@]23C)O1 | > 50 | > 100 | > 50 | > 50
12 | CC(C)(O)[C@@H]1CC[C@@](C)([C@H]2CC[C@]3(C)[C@@H]2CC[C@@H]2[C@@]4(C)CC[C@@H](O)[C@@](C)(CO)[C@@H]4CC[C@]23C)O1 | > 50 | 64.9 | 20.2 | 30.4
13 | CCOC(=O)CC[C@@]1(C)[C@H]([C@](C)(O)CO)CC[C@]2(C)[C@@H]1CC[C@@H]1[C@@H]([C@]3(C)CC[C@H](C(C)(C)O)O3)CC[C@]12C | > 50 | > 100 | > 50 | > 50
14 | CC(C)(O)[C@@H]1CC[C@@](C)([C@H]2CC[C@]3(C)[C@@H]2CC[C@@H]2[C@@]4(C)CCC(=O)C(C)(C)[C@@H]4C[C@H](O)[C@]23C)O1 | > 50 | > 100 | > 50 | > 50
15 | CC(C)(O)[C@H]1CC[C@@](C)([C@H]2CC[C@]3(C)[C@@H]2CC[C@@H]2[C@@]4(C)CC[C@@H](O)C(C)(C)[C@@H]4CC[C@]23C)O1 | > 50 | > 100 | > 50 | > 50
16 | C=C(C)[C@@H]1CC[C@]2(C)[C@H](CC[C@@H]3[C@@H]([C@]4(C)CC[C@H](O)C(C)(C)O4)CC[C@]32C)[C@@]1(C)CCC(=O)OC | > 50 | > 100 | > 50 | > 50

Continued, in another order:

Row | IC50 (A549) [µM] | IC50 (RAW264.7) [µM] | SMILES | IC50 (HepG2) [µM] | IC50 (MCF7) [µM]
17 | 35 | > 100 | C=C(CC[C@H](O)C(C)(C)O)[C@H]1CC[C@]2(C)[C@@H]1CC[C@@H]1[C@@]3(C)CC[C@@H](O)C(C)(C)[C@@H]3CC[C@]12C | 5.9 | 16.7
18 | 12.9 | > 100 | C=C(C)[C@@H]1CC[C@]2(C)[C@H](CC[C@@H]3[C@@H]([C@]4(C)CC[C@H](C(C)(C)O)O4)CC[C@]32C)[C@@]1(C)CCC(=O)OCC | 14.9 | 18.4
19 | > 50 | > 100 | CC(C)(O)[C@H]1CC[C@@](C)([C@H]2CC[C@]3(C)[C@@H]2CC[C@@H]2[C@@]4(C)CC[C@@H](O)[C@@](C)(CO)[C@@H]4CC[C@]23C)O1 | > 50 | 23
20 | > 50 | > 100 | CC(C)(O)[C@@H]1CC[C@@](C)([C@H]2CC[C@]3(C)[C@@H]2CC[C@@H]2[C@@]4(C)CCC(=O)[C@](C)(CO)[C@@H]4CC[C@]23C)O1 | > 50 | > 50
21 | > 50 | > 100 | CC(C)(O)[C@H]1CC[C@@](C)([C@H]2CC[C@]3(C)[C@@H]2CC[C@@H]2[C@@]4(C)CCC(=O)[C@@](C)(CO)[C@@H]4CC[C@]23C)O1 | > 50 | > 50
22 | > 50 | > 100 | CCOC(=O)CC[C@@]1(C)[C@H]([C@](C)(O)CO)CC[C@]2(C)[C@@H]1CC[C@@H]1[C@@H]([C@]3(C)CC[C@@H](C(C)(C)O)O3)CC[C@]12C | > 50 | > 50
23 | 12.4 | > 100 | CC1(C)C(=O)CC[C@]2(C)[C@H]3CC[C@@H]4[C@@H]([C@]5(C)C[C@H](O)C(=O)O5)CC[C@@]4(C)[C@]3(C)CC[C@@H]12 | 8 | 26.7
24 | 28.2 | > 100 | CC(C)(O)[C@@H]1CC[C@@](C)([C@H]2CC[C@]3(C)[C@@H]2CC[C@@H]2[C@@]4(C)CCC(=O)[C@@](C)(CO)[C@@H]4CC[C@]23C)O1 | 6.5 | 18.3
25 | 12.9 | > 100 | C=C(C)[C@@H]1CC[C@]2(C)[C@H](CC[C@@H]3[C@@H]([C@]4(C)CC[C@H](C(C)(C)O)O4)CC[C@]32C)[C@@]1(C)CCC(=O)OC [METHYL SHOREATE] | 6.3 | 5.6

— ChEMBL document CHEMBL3108686, “Cytotoxic dammarane-type triterpenoids from the stem bark of Dysoxylum binecteriferum” (J Nat Prod, 2014)
